# Experimental data as given in patent publication US7816408B2, “Calcium receptor active compounds” (NPS Pharmaceuticals, Inc., priority 2002, dated 2010).
# How the values were obtained:
# human calcium receptor = target: T1, human calcium receptor (Homo sapiens, UniProt P41180); assay: Activity on calcium receptors: fluo-3 fluorescence in HEK293 cells transfected with human calcium receptor gene; format: cell-based; conditions: HEK293 cells transfected with plasmid pHuPCaR4.0 (human calcium receptor gene), loaded with fluo-3; 1 mM CaCl2, 1 mM MgCl2
# T1 construct: expressed in transfected cells; host or cells: HEK293
# T1 sequence (P41180 20-1078): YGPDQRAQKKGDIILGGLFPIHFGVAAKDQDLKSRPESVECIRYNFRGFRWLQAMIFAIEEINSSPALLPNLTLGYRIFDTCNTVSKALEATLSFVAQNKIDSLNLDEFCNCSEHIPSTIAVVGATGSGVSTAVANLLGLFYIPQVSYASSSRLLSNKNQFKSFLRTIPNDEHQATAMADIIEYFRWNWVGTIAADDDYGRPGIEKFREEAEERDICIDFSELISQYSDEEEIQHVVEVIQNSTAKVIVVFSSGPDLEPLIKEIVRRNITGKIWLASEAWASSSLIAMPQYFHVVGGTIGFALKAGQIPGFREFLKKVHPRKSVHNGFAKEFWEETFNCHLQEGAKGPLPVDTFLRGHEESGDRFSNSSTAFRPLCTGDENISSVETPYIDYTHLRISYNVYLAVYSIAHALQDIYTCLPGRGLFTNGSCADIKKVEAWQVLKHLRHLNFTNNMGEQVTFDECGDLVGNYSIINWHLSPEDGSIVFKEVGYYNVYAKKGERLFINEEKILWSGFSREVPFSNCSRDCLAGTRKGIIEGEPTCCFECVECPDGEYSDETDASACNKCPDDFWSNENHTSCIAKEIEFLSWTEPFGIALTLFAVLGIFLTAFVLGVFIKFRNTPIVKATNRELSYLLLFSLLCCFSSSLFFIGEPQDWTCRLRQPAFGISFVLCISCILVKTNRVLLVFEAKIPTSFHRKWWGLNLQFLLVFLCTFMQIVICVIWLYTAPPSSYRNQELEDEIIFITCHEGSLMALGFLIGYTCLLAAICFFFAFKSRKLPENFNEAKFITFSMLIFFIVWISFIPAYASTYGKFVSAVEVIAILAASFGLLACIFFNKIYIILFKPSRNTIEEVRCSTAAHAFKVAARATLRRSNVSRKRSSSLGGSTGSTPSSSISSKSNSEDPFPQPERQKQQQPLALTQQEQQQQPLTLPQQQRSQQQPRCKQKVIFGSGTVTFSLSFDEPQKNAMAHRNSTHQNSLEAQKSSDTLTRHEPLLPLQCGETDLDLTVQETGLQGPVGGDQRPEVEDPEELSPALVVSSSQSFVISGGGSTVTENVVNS
# Method in brief: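 HEK293 cells transfected with human calcium receptor plasmid, loaded 1 h at 37 °C with about 5 μM fluo-3/AM. Cells then rinsed into HEPES-buffered HBSS with 1 mM CaCl2 and 1 mM MgCl2. Fluorescence read at 485/540 nm after compound addition.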
# normal male SD rats = assay: Plasma Ca^2+ level of rats after single oral administration; format: in vivo; conditions: rat, mean of six animals; for Plasma Ca^2+ (mmol/l) 1 hr: 1 hr after single oral dose 30 μmol/kg; for Plasma Ca^2+ (mmol/l) 1 hr / Plasma Ca^2+ (mmol/l) 2 hr / Plasma Ca^2+ (mmol/l) 4 hr / Plasma Ca^2+ (mmol/l) 8 hr / Plasma Ca^2+ (mmol/l) 24 hr / Plasma Ca^2+ (mmol/l) 0 hr: vehicle 10% cyclodextrin (** 1% sodium-CMC); for Plasma Ca^2+ (mmol/l) 2 hr: 2 hr after single oral dose 30 μmol/kg; for Plasma Ca^2+ (mmol/l) 4 hr: 4 hr after single oral dose 30 μmol/kg; for Plasma Ca^2+ (mmol/l) 8 hr: 8 hr after single oral dose 30 μmol/kg; for Plasma Ca^2+ (mmol/l) 24 hr: 24 hr after single oral dose 30 μmol/kg; for Plasma Ca^2+ (mmol/l) 48 hr: 48 hr after single oral dose 30 μmol/kg; for Plasma Ca^2+ (mmol/l) 0 hr: 0 hr = before oral administration of 30 μmol/kg
# Method: The compound of the present invention was administered to rats so as to examine the effects of the compound on the plasma calcium ion level and serum PTH level. The test was performed by orally administering single dose of the compound of the invention or a control compound to normal male SD rats with six animals in each group.
# To the group 1 was administered as a control a 10% cyclodextrin aqueous solution in a dose of 2.5 ml/kg. To the group 2 was administered as a reference (R)-N-(3-(2-chlorophenyl)propyl)-1-(3-methoxyphenyl)ethylamine (KRN568) dissolved in a 10% cyclodextrin aqueous solution in a dose of 30 μmol/kg. To the group 3 was administered the compound of the present invention dissolved in a 10% cyclodextrin aqueous solution in a dose of 30 μmol/kg, provided that 1% sodium-CMC aqueous solution was used in place of 10% cyclodextrin aqueous solution for the compounds marked with ** in Table 2.
# Blood of each rat was collected from the tail tip before the administration and 30 minutes and 1, 2, 4, 8 and 24 hours thereafter (or at the time indicated in Table 2), and the plasma Ca^2+ level and serum PTH level were measured. The data of the serum PTH level were statistically processed by the multiple comparison analysis in accordance with Steel's calibration by using the group 1 as the control.
Compound,EC50 (human calcium receptor) [nM],Plasma Ca^2+ (mmol/l) 1 hr (normal male SD rats) [mmol/L],Plasma Ca^2+ (mmol/l) 2 hr (normal male SD rats) [mmol/L],Plasma Ca^2+ (mmol/l) 4 hr (normal male SD rats) [mmol/L],Plasma Ca^2+ (mmol/l) 8 hr (normal male SD rats) [mmol/L],Plasma Ca^2+ (mmol/l) 24 hr (normal male SD rats) [mmol/L],Plasma Ca^2+ (mmol/l) 48 hr (normal male SD rats; vehicle 10% cyclodextrin) [mmol/L],"Plasma Ca^2+ (mmol/l) 28 hr (footnote *d, 24 hr column) (normal male SD rats; 28 hr after single oral dose 30 μmol/kg, vehicle 10% cyclodextrin)",Plasma Ca^2+ (mmol/l) 0 hr (normal male SD rats) [mmol/L]
"C[C@@H](NCCCCCSc1ccc(F)cc1)c1cccc2ccccc12 [Compound K-2052, N-{5-[(4-fluorophenyl)thio]pentyl}-N-[(1R)-1-(1-naphthyl)ethyl]amine]",5700,1.283,1.187,1.087,1.185,,,,
"C[C@@H](NCCCCCCSc1ccc(Cl)cc1)c1cccc2ccccc12 [Compound K-2286, N-{6-[(4-chlorophenyl)thio]hexyl}-N-[(1R)-1-(1-naphthyl)ethyl]amine]",620,1.318,1.218,1.088,1.098,1.390,1.412,,
"C[C@@H](NCCCSc1ccc(C(F)(F)F)cc1)c1cccc2ccccc12 [Compound K-2240, N-[(1R)-1-(1-naphthyl)ethyl]-N-(3-{[4-(trifluoromethyl)phenyl]thio}propyl)amine]",360,1.302,1.272,1.175,1.230,,,,
"C[C@@H](NCCCCCSc1c(F)c(F)c(C(F)(F)F)c(F)c1F)c1cccc2ccccc12 [Compound K-2284, N-[(1R)-1-(1-naphthyl)ethyl]-N-(5-{[2,3,5,6-tetrafluoro-4-(trifluoromethyl)phenyl]thio}pentyl) amine]",360,1.377,1.267,1.152,1.102,,,,
"C[C@@H](NCCCCCSc1cc(Cl)ccc1Cl)c1cccc2ccccc12 [Compound K-2296, N-{[5-(2,5-dichlorophenyl)thio]pentyl}N-[(1R)-1-(1-naphthyl)ethyl]amine]",220,1.340,1.195,1.113,1.083,,,,1.410
Cc1ccc(SC(C)CCCN[C@H](C)c2cccc3ccccc23)c(C)c1 (some centres unmarked) [Compound K-2303],350,1.255,1.165,1.020,1.032,,,,1.415
"CCCCCCOc1cccc(C(C)NCCSc2cc(Cl)ccc2Cl)c1 (racemic) [Compound K-2255, (±)-N-(1-(3-n-hexyloxyphenyl)ethyl)-2-(2′,5′-dichlorophenylthio)ethylamine]",9600,1.328,1.212,1.177,1.232,,,,

# Molecules with a lower EC50 (human calcium receptor), results first:
EC50 (human calcium receptor) [nM],Compound,Plasma Ca^2+ (mmol/l) 1 hr (normal male SD rats) [mmol/L],Plasma Ca^2+ (mmol/l) 2 hr (normal male SD rats) [mmol/L],Plasma Ca^2+ (mmol/l) 4 hr (normal male SD rats) [mmol/L],Plasma Ca^2+ (mmol/l) 8 hr (normal male SD rats) [mmol/L],Plasma Ca^2+ (mmol/l) 24 hr (normal male SD rats) [mmol/L],Plasma Ca^2+ (mmol/l) 48 hr (normal male SD rats; vehicle 10% cyclodextrin) [mmol/L],"Plasma Ca^2+ (mmol/l) 28 hr (footnote *d, 24 hr column) (normal male SD rats; 28 hr after single oral dose 30 μmol/kg, vehicle 10% cyclodextrin)",Plasma Ca^2+ (mmol/l) 0 hr (normal male SD rats) [mmol/L]
81,"C[C@@H](NCCC(=O)N(Cc1ccc(Cl)cc1)Cc1ccc2ccccc2c1)c1cccc2ccccc12 [Compound K-2291, N1-(4-chlorobenzyl)-N1-(2-naphthylmethyl)-3-{[(1R)-1-(1-naphthyl)ethyl]amino}propanamide]",1.298,1.247,1.130,1.132,,,,
140,"C[C@@H](NCCCCCSc1ccc(OC(F)(F)F)cc1)c1cccc2ccccc12 [Compound K-2288, N-[(1R)-1-(1-naphthyl)ethyl]-N-(5-{[4-(trifluoromethoxy)phenyl)thio]pentyl)amine]",1.190,1.057,0.955,0.905,1.162,1.387,,
66,"COc1ccc(CN(Cc2ccc(Cl)c(Cl)c2)C(=O)CCN[C@H](C)c2cccc3ccccc23)cc1 [Compound K-2309, N1-(3,4-dichlorobenzyl)-N1-(4-methoxybenzyl)-3-{[(1R)-1-(1-naphthyl)ethyl]amino}propanamide]",1.320,1.207,1.018,0.963,,,1.332*^d mmol/l,
98,"Cc1ccc(SCCCCN[C@H](C)c2cccc3ccccc23)cc1 [Compound K-2304, N-{4-[(4-methylphenyl)thio]butyl}-N-[(1R)-1-(1-naphthyl)ethyl]amine]",1.262,1.157,1.053,1.065,,,,
76,"C[C@@H](NCCC(=O)N(Cc1ccccc1)Cc1ccc(Cl)c(Cl)c1)c1cccc2ccccc12 [Compound K-2250, N1-benzyl-N1-(3,4-dichloro-benzyl)-3-{[(1R)-1-(1-naphthyl)ethyl]amino}propanamide]",1.327,1.225,1.122,1.203,,,,
87,"C[C@@H](NCCCCSc1cccc(C(F)(F)F)c1)c1cccc2ccccc12 [Compound K-2087, N-[(1R)-1-(1-naphthyl)ethyl]-N-(4-{[3-(trifluoromethyl)phenyl]thio}butyl)amine]",1.325,1.243,1.197,1.255,,,,
62,"Cc1ccc(CN(Cc2ccc(Cl)c(Cl)c2)C(=O)CCN[C@H](C)c2cccc3ccccc23)cc1 [Compound K-2294, N1-(3,4-dichlorobenzyl)-N1-(4-methylbenzyl)-3-{[(1R)-1-(1-naphthyl)ethyl]amino}propanamide]",1.357,1.255,1.117,1.022,,,,
140,CCOc1ccc2sc(SCCCCN[C@H](C)c3cccc4ccccc34)nc2c1 [Compound K-2271],1.278,1.227,1.128,1.197,,,,1.428
